{
  "source": "patent US20110224197A1",
  "about": "“PYRIMIDINES AND PYRIDINES USEFUL AS INHIBITORS OF PROTEIN KINASES” (Vertex Pharmaceuticals Incorporated, priority 2008, published 2011)",
  "key": {"CRMP2": {"system": "CRMP2", "experiment": "CRMP2 Phosphorylation Assay", "type": "cell-based, rat", "conditions": "E16 hippocampal neurons treated for seven days", "description": "GSK-3 phosphorylation regulates CRMP2 which is involved in the control of axon outgrowth and branching (Yoshimura et al., 2005 Cell, Kim et al. 2006 Neuron). Phosphorylation of CRMP2 by GSK-3 reduces CRMP2 binding to microtubules and thereby reduces axon elongation and branching. Conversely, inhibition of GSK-3, especially at levels that selectively affect TYR residue autophosphorylation, enhances these phenotypes. Compounds are tested in E16 rat hippocampal or cortical neurons to determine the ability to increase the level of axonal branching.\n1 mg/ml stock of PDL is diluted into 100 μg/mL in DI water. The glass coverslips are coated for at least 1 hour at 37° C. prior to doing the dissection. PDL is aspirated and the plates are rinsed with PBS and air-dried in hood.\nCortical or hippocampal lobes are combined with 9 mL of Base media (Neurobasal+Pen/Strep) and put on ice. 1 mL of 10× trypsin solution is added and the Mixture is swirled gently. The tissue is then digested via incubation in a 37° C. waterbath for 20 minutes. After 20 minutes, 10 μL/mL DNase (100 μL DNase) is added and the mixture is incubated for another 5 minutes.\nThe cells are spun at 1000 rpm for 1 minute. The enzyme solution is then removed without removing any of the brain fragments sitting on the bottom. […] The cells are counted in a hemacytometer and seeded at 50,000 cells/well in a 12 well plate. […]"}, "β-catenin": {"system": "β-catenin", "experiment": "β-catenin in brain, Post Stroke Model II", "type": "in vivo, rat", "conditions": "all doses", "description": "To track the activity of Compound I-37 in the CNS of rats subjected to MCAO, brains were removed and protein lysate was obtained (as described herein) from both vehicle treated and compound treated animals at the termination of the study. Lysates were analyzed by Western blot and probed for GSK-3α/β pTYR levels.\nProtein lysate is obtained from the brains of all vehicle and compound-treated animals and is processed for biomarker analysis of GSK3α/β pTYR and β-catenin by Western blot assay to ensure compound activity on the target."}, "spinal cord injury model": {"system": "spinal cord injury model", "experiment": "Spinal Cord Injury Model", "conditions": "in vivo", "description": "Compound I-37 was tested in a spinal cord injury model similar to the one described in Dill, et al, (2008) “Inactivation of Glycogen Synthase Kinase 3 Promotes Axonal Growth and Recover in CNS” The Journal of Neuroscience, 28(36): 8914-8928."}},
  "data": [
    {"smiles": "Cc1nc(-c2ccccc2Cl)nc(Nc2n[nH]c3ncc(F)cc23)c1C", "note": "[Compound I-37, N-(2-(2-chlorophenyl)-5,6-dimethylpyrhnidin-4-yl)-5-fluoro-1H-pyrazolo[3,4-b]pyridin-3-amine]", "values": [
      {"measurement": "Inhibition of GSK-3 phosphorylation of substrate CRMP-2", "setting": "CRMP2", "value": "correlated with inhibition of GSK-3 pTYR"},
      {"measurement": "induction of β-catenin", "setting": "β-catenin", "value": "no induction"},
      {"measurement": "functional recovery", "setting": "spinal cord injury model", "value": "did not appear to improve functional recovery"}
    ]}
  ]
}
